Assay results from patent US8895502B2, “β2-glycoprotein I peptide inhibitors” (Kansas State University Research Foundation, priority 2010, dated 2014).
Square brackets hold non-standard residues; d marks the D form.

B1: human β2-GPI: commercially-available human β2-GPI (SEQ ID NO. 15), whole molecule (protein, listed as Homo sapiens)
chain: MISPVLILFSSFLCHVAIAGRTCPKPDDLPFSTVVPLKTFYEPGEEITYSCKPGYVSRGGMRKFICPLTGLWPINTLKCTPRVCPFAGILENGAVRYTTFEYPNTISFSCNTGFYLNGADSAKCTEEGKWSPELPVCAPIICPPPSIPTFATLRVYKPSAGNNSLYRDTAVFECLPQHAMFGNDTITCTTHGNWTKLPECREVKCPFPSRPDNGFVNYPAKPTLYYKDKATFGCHDGYSLDGPEEIECTKLGNWSAMPSCKASCKVPVKKATVVYQGERVKIQEKFKNGMLHGDKVSFFCKNKEKKCSYTEDAQCIDGTIEVPKCFKEHSSLAFWKTDASDVKPC

How the values were obtained:
C57Bl/6 mice [1] = assay: Intestinal ischemia/reperfusion, mucosal injury score; type: in vivo, mouse; conditions: C57Bl/6 mice, peptide 40 μM i.v. 5 min prior to ischemia, 2 hours reperfusion
Method: (§1) C57Bl/6 and Rag-1^−/− mice were subjected to ischemia followed by reperfusion similar to previously described studies (Moses, T. et al., J. Leukoc. Biol. 86:971-980 (2009)). Briefly, ketamine (16 mg/kg) and xylazine (80 mg/kg) were used to anesthetize the mice. Buprenorphine (0.06 mg/kg) was then administered for pain. A midline laparotomy was performed to expose the abdominal cavity of the mice, which were then allowed to equilibrate for 30 min. Body temperature was maintained at 37° C. using a water-circulating heat pad. Placing a warm, saline moistened piece of gauze over the abdominal cavity prevented peritoneal desiccation. […] Ischemia was noted by the intestine changing from a pink color to a gray color. After 30 min of ischemia, the clamp was removed and the intestines were allowed to reperfuse for 5, 10, 15, or 120 min. […] Mice treated with the various β2-GPI peptides underwent the same procedure with i.v. administration of the peptides (40 μM) 5 min prior to artery occlusion. Peptides 296, 305, and 296Cys to Ser were dissolved in N. Saline (0.9% NaCl) and injected i.v. in 100-μL volumes. Peptides 100 and 181 were dissolved in DMSO prior to diluting 1/100 in N. Saline. Additional mice received peptides prior to Sham treatment.
Immediately after euthanasia, a 2-cm mid jejunum tissue section was immediately fixed in 10% buffered formalin, embedded in paraffin, and 8 μm sections were cut transversely and hematoxylin and eosin (H&E) stained. Mucosal injury was graded on a six-tiered scale, as described previously (Fleming, S. D. et al., J. Immunol. 169:2126-2133 (2002)). Briefly, the average damage score of the intestinal section (75-150 villi) was determined after grading each villus. […] Photomicrographs were obtained from H&E stained slides using a 20×, 0.5 Plan Fluor objective on a Nikon 80i microscope and images acquired at room temperature using a Nikon DS-5M camera with DS-L2 software.
Ischemia/reperfusion was performed on ketamine/xylazine anesthetized mice as described in Example 1 above. After 2 hours of reperfusion, the mice were euthanized and sera, liver, spleen, and 2 cm sections of the small intestine, approximately 10 cm distal to the gastroduodenal junction, were collected for histological and other analyses. Mice treated with the various β2-GPI peptides underwent the same procedure with i.v. administration of the peptides. Most studies assumed 2 mL total blood volume in a mouse and administered peptides to a final concentration of 40 μM at 5 min prior to ischemia. Dose response studies administered 1-40 μM peptide at 5 min prior to ischemia and time course studies administered 40 μM peptide at 5 min prior to ischemia, and at 15-, 30- or 60-min post-ischemia (i.e., during reperfusion).
After euthanasia, tissue sections were fixed and stained following the procedures outlined in Example 1. Mucosal injury (SMI) was also graded on a six-tiered scale, as described in Example 1.

C3 = assay: Intestinal IR, C3 deposition immunohistochemistry; type: in vivo, mouse; conditions: C57Bl/6 mice, peptide infused prior to IR
Method: as §1
After euthanasia, an additional 2-cm intestinal section from each mouse was immediately snap frozen in O.C.T. freezing medium and 8 μm sections were placed on slides for immunohistochemistry. The C3 deposition and F4/80 expression on the tissue sections were detected by staining with a purified rat-anti-mouse C3 (Hycult Biotechnologies; Plymouth Meeting, Pa.) or F4/80 (eBioscience; San Diego, Calif.) antibody followed by a Texas-red conjugated donkey-anti-rat IgG secondary antibody (Jackson Immunoresearch). CD31 (PECAM-1) and CD106 (VCAM-1) were detected by FITC conjugated rat anti-mouse CD31 or CD106 (Biolegend; San Diego, Calif.) antibodies. Each experiment contained serial sections stained with the appropriate isotype control antibodies. All slides were mounted with ProLong Gold (Invitrogen). Images were obtained at room temperature using a Nikon Eclipse 80i microscope equipped with a CoolSnap CF camera (Photometrics) and analyzed using Metavue software (Molecular Devices). The fluorescence was semi-quantitated using Image J software (NIH) using the fluorescent area fraction after setting threshold for each experiment. The average of the isotype control was subtracted from each photo.

PGE2 = assay: Intestinal IR, ex vivo PGE2 generation; type: in vivo, mouse; conditions: C57Bl/6 mice, peptide 40 μM prior to IR
Method: C57Bl/6 and Rag-1^−/− mice were subjected to ischemia followed by reperfusion similar to previously described studies (Moses, T. et al., J. Leukoc. Biol. 86:971-980 (2009)). Briefly, ketamine (16 mg/kg) and xylazine (80 mg/kg) were used to anesthetize the mice. Buprenorphine (0.06 mg/kg) was then administered for pain. A midline laparotomy was performed to expose the abdominal cavity of the mice, which were then allowed to equilibrate for 30 min. Body temperature was maintained at 37° C. using a water-circulating heat pad. Placing a warm, saline moistened piece of gauze over the abdominal cavity prevented peritoneal desiccation. […] Ischemia was noted by the intestine changing from a pink color to a gray color. After 30 min of ischemia, the clamp was removed and the intestines were allowed to reperfuse for 5, 10, 15, or 120 min. […] Peptides 296, 305, and 296Cys to Ser were dissolved in N. Saline (0.9% NaCl) and injected i.v. in 100-μL volumes. Peptides 100 and 181 were dissolved in DMSO prior to diluting 1/100 in N. Saline. Additional mice received peptides prior to Sham treatment.
(§2) Ex vivo generation of eicosanoids by mid-jejunal tissue was determined. Immediately after collection, a 2-cm intestinal section from each mouse was minced, washed, resuspended in 37° C. oxygenated Tyrode's buffer (Sigma-Aldrich; St. Louis, Mo.), incubated at 37° C. for 20 minutes, and the supernatant collected. PGE2 and LTB4 concentrations were determined using enzyme immunoassay kits (Cayman Chemical; Ann Arbor, Mich.). IL-6 and IL-12 concentrations were determined using a Milliplex MAP immunoassay kit (Millipore) and read on a Milliplex Analyzer (Millipore). All eicosanoid and cytokine concentrations were standardized to the total tissue protein content.
(§3) Total peroxidase, LTB4, PGE2, IL-6, IL-12p40, and IL-12p70 concentrations were determined using the procedures described in Example 1.

LTB4 = assay: Intestinal IR, ex vivo LTB4 generation; type: in vivo, mouse; conditions: C57Bl/6 mice, peptide 40 μM prior to IR
Method: as §1, §2, §3

[2] = test system: thioglycollate-elicited macrophages, nitric oxide; assay: β2-GPI stimulated macrophage nitric oxide production; type: cell-based; conditions: mouse β2-GPI 10 μg/mL, peptide 40 μM, 18 hours
Method: C57Bl/6 mice were injected i.p. with 1 mL thioglycollate (4%) 4 days prior to peritoneal lavage. Peritoneal exudate macrophages or the B cell line, LK35.2, were seeded at 2×10^6 cells/mL in 24-well or 96-well plates. After macrophage adherence, both cell types were treated with mouse β2-GPI (10 μg/mL) with or without peptide (40 μM). Additional cells were unstimulated as a negative control or stimulated with 10 μg/mL LPS (E. coli 055B5) as a positive control. Supernatants were collected 18-20 hours after stimulation and analyzed for nitrite by Griess reagent (Hoffman & Fleming, Cell Biochem. Funct. 28:686-694 (2010)) or IL-6 by Milliplex MAP kit (Millipore) following the manufacturer's instructions using a Luminex 200 with xPONENT 3.1 and Analyst software (Millipore).

C57Bl/6 mice [3] = assay: Intestinal ischemia/reperfusion, mucosal injury score; type: in vivo, mouse; conditions: Example 3, human β2-GPI in N. saline at 0.5-μg, 1-μg and 5-μg

Molecule | IR-induced intestinal mucosal damage (injury score) (C57Bl/6 mice [1]) | C3 deposition / complement activation after IR (C3) | IR-induced intestinal PGE2 production (PGE2) | IR-induced intestinal LTB4 production (LTB4) | β2-GPI-induced nitric oxide production [2] | IR-induced intestinal injury (C57Bl/6 mice [3])
H-GNDTVMCTEQQN-NH2 [peptide 181, 17, reference compound] | IR-induced intestinal damage similar to untreated mice |  |  |  |  | 
H-SHAEVTYSS-OH (H-[dS][dH][dA][dE][dV][dT][dY][dS][dS]-OH; also: retro-inverso) [peptide Retro-inverso D-p9, 13] | attenuated | few to no C3 deposits | attenuated | attenuated |  | 
H-SKNKEKK-NH2 [peptide p7, 11] | attenuate actual epithelial injury more effectively |  | returned PGE2 concentrations to those found in Sham treated animals |  |  | 
H-SSYTVEAHS-NH2 [peptide p9, 12] | attenuated | significantly less deposition | attenuated | attenuated | significantly attenuated | 
H-SSYTVEAHS-OH (H-[dS][dS][dY][dT][dV][dE][dA][dH][dS]-OH; SMILES CC(C)[C@@H](NC(=O)[C@H](NC(=O)[C@@H](Cc1ccc(O)cc1)NC(=O)[C@@H](CO)NC(=O)[C@H](N)CO)[C@H](C)O)C(=O)N[C@H](CCC(=O)O)C(=O)N[C@H](C)C(=O)N[C@H](Cc1c[nH]cn1)C(=O)N[C@H](CO)C(=O)O) [peptide D-p9, p9 synthesized with D-amino acids] | attenuated |  | attenuated | did not |  | 
B1 |  |  |  |  |  | effective at attenuating
